Results: ChEMBL document CHEMBL1201862, “PubChem BioAssay data set” (2004)
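Growth conditions: 96-well plates. Treatment: test compound, 48 hours, 5 concentrations. Analysis: linear interpolation between bracketing concentrations; unreached endpoints set to highest concentration. GI50 is the concentration that inhibits growth by half.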 The source made the active and inactive calls. No stated cut-off is given here; in the data, active = GI50 up to about 1.1 µM and inactive = higher.

Assays:
Experiment in all cases: NCI anticancer screen, dose series, 48 h
UACC-62 = system: UACC-62
CCRF-CEM = system: CCRF-CEM
U-251 = system: U-251
KM12 = system: KM12
A498 = system: A498
SN12C = system: SN12C
NCI-H522 = system: NCI-H522
KM-20L2 = system: KM-20L2
OVCAR-8 = system: OVCAR-8
XF498 = system: XF498
MOLT-4 = system: MOLT-4
HOP-92 = system: HOP-92
OVCAR-4 = system: OVCAR-4
HL-60 = system: HL-60
UO-31 = system: UO-31
LXFL 529 = system: LXFL 529
COLO 205 = system: COLO 205
NCI-H460 = system: NCI-H460
RXF 631 = system: RXF 631
DMS-114 = system: DMS-114
HT-29 = system: HT-29
HCC 2998 = system: HCC 2998
HOP-62 = system: HOP-62
SR = system: SR
M14 = system: M14
SK-MEL-5 = system: SK-MEL-5
SNB-19 = system: SNB-19
DLD-1 = system: DLD-1
CAKI-1 = system: CAKI-1
SK-MEL-2 = system: SK-MEL-2
786-0 = system: 786-0
SK-MEL-28 = system: SK-MEL-28
HCT-15 = system: HCT-15
SF-539 = system: SF-539
ACHN = system: ACHN
SNB-78 = system: SNB-78
SK-OV-3 = system: SK-OV-3
HOP-18 = system: HOP-18
TK-10 = system: TK-10
DMS-273 = system: DMS-273
IGROV-1 = system: IGROV-1
OVCAR-5 = system: OVCAR-5
NCI-H226 = system: NCI-H226
A549 = system: A549
EKVX = system: EKVX
OVCAR-3 = system: OVCAR-3
SW-620 = system: SW-620
Malme-3M = system: Malme-3M
SF-268 = system: SF-268
M19-MEL = system: M19-MEL
RXF 393 = system: RXF 393
SF-295 = system: SF-295
UACC-257 = system: UACC-257
SNB-75 = system: SNB-75
HCT-116 = system: HCT-116
NCI-H23 = system: NCI-H23
RPMI-8226 = system: RPMI-8226
K562 = system: K562
LOX IMVI = system: LOX IMVI

Compound: Cc1ccc(C)c(NC(=O)CC2SC(Nc3ccccc3Cl)=NC2=O)c1 (configuration not stated)
- GI50 (UACC-62): 49.3 µM (inactive)
- GI50 (CCRF-CEM): 22.1 µM (inactive)
- GI50 (U-251): > 100 µM (inactive)
- GI50 (KM12): > 100 µM (inactive)
- GI50 (A498): > 100 µM (inactive)
- GI50 (SN12C): > 100 µM (inactive)
- GI50 (NCI-H522): 27 µM (inactive)
- GI50 (KM-20L2): > 100 µM (inactive)
- GI50 (OVCAR-8): > 100 µM (inactive)
- GI50 (XF498): > 100 µM (inactive)
- GI50 (MOLT-4): 81.5 µM (inactive)
- GI50 (HOP-92): 27.7 µM (inactive)
- GI50 (OVCAR-4): 65.9 µM (inactive)
- GI50 (HL-60): 32.3 µM (inactive)
- GI50 (UO-31): 75.9 µM (inactive)
- GI50 (LXFL 529): 74.3 µM (inactive)
- GI50 (COLO 205): > 100 µM (inactive)
- GI50 (NCI-H460): > 100 µM (inactive)
- GI50 (RXF 631): > 100 µM (inactive)
- GI50 (DMS-114): 29.9 µM (inactive)
- GI50 (HT-29): > 100 µM (inactive)
- GI50 (HCC 2998): > 100 µM (inactive)
- GI50 (HOP-62): > 100 µM (inactive)
- GI50 (SR): 8.61 µM (inactive)
- GI50 (M14): > 100 µM (inactive)
- GI50 (SK-MEL-5): 36.1 µM (inactive)
- GI50 (SNB-19): > 100 µM (inactive)
- GI50 (DLD-1): 77.4 µM (inactive)
- GI50 (CAKI-1): 65.8 µM (inactive)
- GI50 (SK-MEL-2): > 100 µM (inactive)
- GI50 (786-0): > 100 µM (inactive)
- GI50 (SK-MEL-28): > 100 µM (inactive)
- GI50 (HCT-15): > 100 µM
- GI50 (SF-539): > 100 µM (inactive)
- GI50 (ACHN): 71.1 µM (inactive)
- GI50 (SNB-78): > 100 µM (inactive)
- GI50 (SK-OV-3): > 100 µM (inactive)
- GI50 (HOP-18): > 100 µM (inactive)
- GI50 (TK-10): > 100 µM (inactive)
- GI50 (DMS-273): > 100 µM (inactive)
- GI50 (IGROV-1): > 100 µM (inactive)
- GI50 (OVCAR-5): > 100 µM (inactive)
- GI50 (NCI-H226): > 100 µM (inactive)
- GI50 (A549): 65.3 µM (inactive)
- GI50 (EKVX): > 100 µM (inactive)
- GI50 (OVCAR-3): > 100 µM (inactive)
- GI50 (SW-620): > 100 µM (inactive)
- GI50 (Malme-3M): > 100 µM (inactive)
- GI50 (SF-268): > 100 µM (inactive)
- GI50 (M19-MEL): 94.4 µM (inactive)
- GI50 (RXF 393): 90.8 µM (inactive)
- GI50 (SF-295): 72.6 µM (inactive)
- GI50 (UACC-257): 55.3 µM (inactive)
- GI50 (SNB-75): 55.7 µM (inactive)
- GI50 (HCT-116): > 100 µM (inactive)
- GI50 (NCI-H23): 43 µM (inactive)

Compound: CC(=O)OC1COC(n2c(=S)n(-c3ccccc3)c(=O)c3ccccc32)C(OC(C)=O)C1OC(C)=O (configuration not stated)
- GI50 (UACC-62): 4.05 µM (inactive)
- GI50 (CCRF-CEM): 32.7 µM (inactive)
- GI50 (U-251): 78.5 µM (inactive)
- GI50 (KM12): 29.2 µM (inactive)
- GI50 (RPMI-8226): 22.5 µM (inactive)
- GI50 (A498): > 100 µM (inactive)
- GI50 (SN12C): > 100 µM (inactive)
- GI50 (NCI-H522): 35 µM (inactive)
- GI50 (KM-20L2): 4.29 µM (inactive)
- GI50 (OVCAR-8): 72.8 µM (inactive)
- GI50 (XF498): 74.6 µM (inactive)
- GI50 (MOLT-4): 21 µM (inactive)
- GI50 (HOP-92): 37.1 µM (inactive)
- GI50 (OVCAR-4): 26.8 µM (inactive)
- GI50 (HL-60): 20.4 µM (inactive)
- GI50 (UO-31): 48.9 µM (inactive)
- GI50 (LXFL 529): 8.55 µM (inactive)
- GI50 (COLO 205): 99.1 µM (inactive)
- GI50 (NCI-H460): 66.1 µM (inactive)
- GI50 (RXF 631): 47.9 µM (inactive)
- GI50 (DMS-114): 40.6 µM (inactive)
- GI50 (HT-29): 85.3 µM (inactive)
- GI50 (HCC 2998): 58.2 µM (inactive)
- GI50 (HOP-62): > 100 µM (inactive)
- GI50 (M14): 21.3 µM (inactive)
- GI50 (SK-MEL-5): 98.2 µM (inactive)
- GI50 (SNB-19): > 100 µM (inactive)
- GI50 (DLD-1): 56.5 µM (inactive)
- GI50 (CAKI-1): 2.94 µM (inactive)
- GI50 (SK-MEL-2): 13.1 µM (inactive)
- GI50 (786-0): 78.9 µM (inactive)
- GI50 (SK-MEL-28): > 100 µM (inactive)
- GI50 (HCT-15): 6 µM
- GI50 (SF-539): > 100 µM (inactive)
- GI50 (ACHN): 25.2 µM (inactive)
- GI50 (SNB-78): > 100 µM (inactive)
- GI50 (K562): 2.51 µM (inactive)
- GI50 (SK-OV-3): > 100 µM (inactive)
- GI50 (HOP-18): > 100 µM (inactive)
- GI50 (DMS-273): 19.2 µM (inactive)
- GI50 (IGROV-1): 67.3 µM (inactive)
- GI50 (OVCAR-5): > 100 µM (inactive)
- GI50 (NCI-H226): > 100 µM (inactive)
- GI50 (A549): 39.9 µM (inactive)
- GI50 (EKVX): > 100 µM (inactive)
- GI50 (OVCAR-3): 74.6 µM (inactive)
- GI50 (SW-620): 44.6 µM (inactive)
- GI50 (Malme-3M): > 100 µM (inactive)
- GI50 (SF-268): 89.9 µM (inactive)
- GI50 (LOX IMVI): 21.4 µM (inactive)
- GI50 (RXF 393): 55.3 µM (inactive)
- GI50 (SF-295): 19.9 µM (inactive)
- GI50 (UACC-257): > 100 µM (inactive)
- GI50 (SNB-75): > 100 µM (inactive)
- GI50 (HCT-116): 47.9 µM (inactive)
- GI50 (NCI-H23): 70 µM (inactive)
